Like-named read-outs stand apart in the source and are kept apart here.
Tests used:
Assay type in all cases: biochemical
MMP-3 = molecular target: T1, MMP-3 (Homo sapiens, UniProt P08254); assay: Assay for determining MMP-3 inhibition (fluorescent substrate); conditions: catalytic domain of MMP-3
T1 construct: stock solution of the catalytic domain of MMP-3 enzyme (Biomol, Cat. No. SE-109); purchased Biomol SE-109
Method: The typical assay for MMP-3 activity is carried out in assay buffer comprised of 50 mM MES, pH 6.0, 10 mM CaCl2 and 0.05% Brij-35. Different concentrations of tested compounds are prepared in assay buffer in 50 μL aliquots. 10 μL of a […] stock solution of the catalytic domain of MMP-3 enzyme (Biomol, Cat. No. SE-109) is added to the compound solution. The mixture of enzyme and compound in assay buffer is thoroughly mixed and incubated for 10 min at room temperature. Upon the completion of incubation, the assay is started by addition of 40 μL of a 12.5 μM stock solution of NFF-3 fluorescent substrate (Calbiochem, Cat. No. 480-455). The time-dependent increase in fluorescence is measured at the 330 nm excitation and 390 nm emission by an automatic plate multireader. The IC50 values are calculated from the initial reaction rates.

MMP-13 = molecular target: T2, MMP-13 (Homo sapiens, UniProt P45452); assay: Assay for determining MMP-13 inhibition (fluorescent substrate); conditions: catalytic domain of MMP-13
T2 construct: stock solution of catalytic domain of MMP-13 enzyme (produced by Alantos or commercially available from Invitek (Berlin), Cat.# 30100812); purchased Invitek (Berlin) 30100812
Method: The typical assay for MMP-13 activity is carried out in assay buffer comprised of 50 mM Tris, pH 7.5, 150 mM NaCl, 5 mM CaCl2 and 0.05% Brij-35. Different concentrations of tested compounds are prepared in assay buffer in 50 μL aliquots. 10 μL of a 50 nM stock solution of catalytic domain of MMP-13 enzyme (produced by Alantos or commercially available from Invitek (Berlin), Cat.# 30100812) is added to the compound solution. The mixture of enzyme and compound in assay buffer is thoroughly mixed and incubated for 10 min at room temperature. Upon the completion of incubation, the assay is started by addition of 40 μL of a 12.5 μM stock solution of MMP-13 fluorescent substrate (Calbiochem, Cat. No. 444235). The time-dependent increase in fluorescence is measured at the 320 nm excitation and 390 nm emission by automatic plate multireader. The IC50 values are calculated from the initial reaction rates.

MMP-8 = molecular target: T3, MMP-8 (Homo sapiens, UniProt P22894); assay: Assay for determining MMP-8 inhibition (fluorescent substrate); conditions: activated MMP-8 enzyme; upper bound class
T3 construct: purchased Calbiochem 444229
T3 sequence (P22894 101-467): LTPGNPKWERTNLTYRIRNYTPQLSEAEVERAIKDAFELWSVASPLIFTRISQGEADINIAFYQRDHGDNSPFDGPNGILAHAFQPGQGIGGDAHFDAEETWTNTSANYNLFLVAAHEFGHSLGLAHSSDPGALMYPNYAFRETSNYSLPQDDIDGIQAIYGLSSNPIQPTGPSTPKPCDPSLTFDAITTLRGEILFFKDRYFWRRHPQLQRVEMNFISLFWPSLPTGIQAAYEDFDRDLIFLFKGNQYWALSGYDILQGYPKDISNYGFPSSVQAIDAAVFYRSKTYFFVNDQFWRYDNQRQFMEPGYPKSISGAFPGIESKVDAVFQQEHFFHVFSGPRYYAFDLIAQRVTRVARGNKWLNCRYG
Method: The typical assay for MMP-8 activity is carried out in assay buffer comprised of 50 mM Tris, pH 7.5, 150 mM NaCl, 5 mM CaCl2 and 0.05% Brij-35. Different concentrations of tested compounds are prepared in assay buffer in 50 μL aliquots. 10 μL of a 50 nM stock solution of activated MMP-8 enzyme (Calbiochem, Cat. No. 444229) is added to the compound solution. The mixture of enzyme and compound in assay buffer is thoroughly mixed and incubated for 10 min at 37° C. Upon the completion of incubation, the assay is started by addition of 40 μL of a 10 μM stock solution of OmniMMP fluorescent substrate (Biomol, Cat. No. P-126). The time-dependent increase in fluorescence is measured at the 320 nm excitation and 390 nm emission by an automatic plate multireader at 37° C. The IC50 values are calculated from the initial reaction rates.

[1] = upper bound class, read-out: MMP-3 inhibition activity (IC50 MMP-3)
[2] = upper bound class, read-out: MMP-13 inhibition activity (IC50 MMP-13)

T1 sequence (P08254 100-272 limits assumed): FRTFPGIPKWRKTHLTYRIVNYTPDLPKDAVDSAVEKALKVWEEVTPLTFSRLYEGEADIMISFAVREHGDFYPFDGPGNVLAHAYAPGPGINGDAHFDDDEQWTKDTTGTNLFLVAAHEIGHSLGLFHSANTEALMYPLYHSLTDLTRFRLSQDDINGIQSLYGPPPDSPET

Row | Compound | IC50 (MMP-3; [1]) [nM] | IC50 (MMP-13; [2]) [nM] | IC50 (MMP-8) [µM] | IC50 (MMP-3; range bounds printed with own units (nM to μM), read-out: MMP-3 inhibition activity (IC50 MMP-3), range) [nM] | IC50 (MMP-13; range bounds printed with own units (nM to μM), read-out: MMP-13 inhibition activity (IC50 MMP-13), range) [nM]
1 | Nc1c(N2CCc3ccc(CNC(=O)c4nc5sc6c(c5c(=O)[nH]4)CCC4(C6)OCCO4)cc3C2)c(=O)c1=O [1/8] | < 250 | < 100 | < 0.25 | – | –
2 | Nc1c(N2CCc3ccc(CNC(=O)c4ncc(-c5ccc(F)cc5)c(=O)[nH]4)cc3C2)c(=O)c1=O [Example 1] | – | – | – | 250 to 20000 | 100 to 20000
3 | Cc1nc(C(=O)NCc2ccc3c(c2)CN(c2c(N)c(=O)c2=O)CC3)[nH]c(=O)c1C [Example 1/2] | – | < 100 | – | – | –
4 | Cc1csc2nc(C(=O)NCc3ccc4c(c3)CN(c3c(N)c(=O)c3=O)CC4)[nH]c(=O)c12 [Example 1/3] | < 250 | < 100 | < 0.25 | – | –

From patent US20080221128A1, “Metalloprotease inhibitors containing a squaramide moiety” (priority 2007, published 2008)
